Earlier results on two substances are cited in patent US20130133101A1, “PLANTS RESISTANT TO PATHOGENS AND METHODS FOR PRODUCTION THEREOF” (GENOPLANTE-VALOR, priority 2010, published 2013).

Non-standard residues stand in square brackets, D forms with d. sY = N[C@@H](Cc1ccc(OS(=O)(=O)O)cc1)C(=O)O

One data set relates to Botrytis tulipae. As to conditions: in vitro, dose-dependent manner.
The next data set has as its system Phoma nareissi. Conditions: in vitro, dose-dependent manner.

Take H-[sY]I[sY]T-OH [PSKβ]: the mycelium growth inhibition entry in the data set on Botrytis tulipae and with Phoma nareissi was “inhibit in vitro the mycelium growth” throughout.

H-[sY]I[sY]TQ-OH [PSKα]: the mycelium growth inhibition result with Botrytis tulipae and in the data set on Phoma nareissi was “inhibit in vitro the mycelium growth” throughout.
